Here are results for 33 compounds from ChEMBL document CHEMBL3102727, “Conformationally constrained ortho-anilino diaryl ureas: discovery of 1-(2-(1'-neopentylspiro[indoline-3,4'-piperidine]-1-yl)phenyl)-3-(4-(trifluoromethoxy)phenyl)urea, a potent, selective, and bioavailable P2Y1 antagonist” (J Med Chem, 2013).

Molecules are shown by their SMILES. ≈ marks a conversion by molar mass, not a printed value. Calls of active or inactive are those of the source. The rule behind the calls is not given here.

Series [1] has as its target T1, P2Y purinoceptor 1 (Homo sapiens, UniProt P47900). Kind of series: Displacement of [33P]-2MeS-ADP from human P2Y1 receptor expressed in HEK293 cells after 1 hr by scintillation counting analysis. Format: cell-based.
The nature of series [2]: Aqueous solubility of the of partial crystalline form of compound in phosphate buffer at pH 6.5. It is filed as physicochemical.
Series [3] is described as follows: Partition coefficient, log P of the compound at pH 7 by reversed-phase HPLC method. The note with it: octanol/water. Format: physicochemical.
The nature of series [4]: Aqueous solubility of the crystalline form of compound in phosphate buffer at pH 6.5. It is filed as physicochemical.
Series [5] can be described thus: Aqueous solubility of the amorphous form of compound in phosphate buffer at pH 6.5. Format: physicochemical.
The target of series [6] is T1, P2Y purinoceptor 1. Kind of series: Antagonist activity at P2Y1 receptor in platelet-enriched human plasma assessed as 2.5 uM ADP-induced platelet aggregation preincubated for 1 min followed by ADP induction measured at 5 mins by aggregometric analysis.
Series [7] is described as follows: Metabolic stability in mouse liver microsomes assessed as compound remaining after 10 mins. The settings on record: read-out: Stability. It is filed as ADME, Microsome. (In general: Liver microsomes are vesicles of endoplasmic reticulum, rich in cytochrome P450 enzymes.)
Series [8] is described as follows: Metabolic stability in rat liver microsomes assessed as compound remaining after 10 mins. Format: ADME. The settings on record: read-out: Stability.
The nature of series [9]: Metabolic stability in human liver microsomes assessed as compound remaining after 10 mins. Format: ADME. The settings on record: read-out: Stability.
In series [10] the target is T1, P2Y purinoceptor 1. The series can be described thus: Antagonist activity at P2Y1 receptor in washed human platelets assessed as 1 uM 2-methylthio-ADP-induced calcium flux by FLIPR assay. It is filed as functional.

T1 sequence (P47900 whole entry): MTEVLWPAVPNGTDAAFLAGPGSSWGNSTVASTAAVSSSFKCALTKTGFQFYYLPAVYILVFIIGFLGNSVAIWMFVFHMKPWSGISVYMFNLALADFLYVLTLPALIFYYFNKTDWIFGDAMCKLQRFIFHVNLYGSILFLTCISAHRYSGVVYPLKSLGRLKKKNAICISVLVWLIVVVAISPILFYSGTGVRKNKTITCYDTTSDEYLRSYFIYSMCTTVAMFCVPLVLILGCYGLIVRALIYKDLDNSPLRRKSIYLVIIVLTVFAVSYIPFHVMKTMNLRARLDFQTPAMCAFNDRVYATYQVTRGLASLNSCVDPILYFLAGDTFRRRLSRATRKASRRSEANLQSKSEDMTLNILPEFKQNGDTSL

One may read the Ki as the equilibrium dissociation constant of an inhibitor or competing ligand from its target. Lower therefore signals a stronger hold on the target. Compound `CC1(C)CCN(c2ncccc2NC(=O)Nc2ccc(OC(F)(F)F)cc2)c2ccccc21` came in with a Ki on P2Y purinoceptor 1 [1] of 16 nM.

In general, solubility refers to how much of the substance goes into solution per volume. The logP is a log measure of how a compound divides between an organic and an aqueous phase. Lower therefore signals lower lipophilicity. In turn, `O=C(Nc1ccc(OC(F)(F)F)cc1)Nc1ccccc1N1CC2(CCN(CCO)CC2)c2ccccc21` yielded a solubility in [2] of 123 µg/mL (≈ 234 µM). In series [3], this compound yielded a logP of 4.6. The compound also gave a Ki at P2Y purinoceptor 1 [1] of 4500 nM.

`COC(=O)N1CCC2(CC1)CN(c1ccccc1NC(=O)Nc1ccc(OC(F)(F)F)cc1)c1ccccc12`: in series [4], the solubility is 1 µg/mL (≈ 1.85 µM). This compound also showed a logP in series [3] of 6. Besides, at P2Y purinoceptor 1 [1], the affinity corresponds to a Ki of 13.3 nM.

`CC(C)NC(=O)N1CCC2(CC1)CN(c1ccccc1NC(=O)Nc1ccc(OC(F)(F)F)cc1)c1ccccc12`: the solubility in [2] stood at 1 µg/mL (≈ 1.76 µM). In series [3], this compound had a lipophilicity (logP) of 5.7. Moreover, the Ki at P2Y purinoceptor 1 [1] amounted to 200 nM.

The compound `CC1(C)CN(c2ccccc2NC(=O)Nc2ccc(OC(F)(F)F)cc2)c2ccccc2O1` showed an inhibition constant (Ki) on P2Y purinoceptor 1 [1] of 39 nM.

As for `CC(C)(C)CN1CCCC2(C1)CN(c1ccccc1NC(=O)Nc1ccc(OC(F)(F)F)cc1)c1ccccc12` (stereo unspecified), the solubility in series [5] is less than 1 µg/mL. Also, the logP in series [3] is on record as more than 6.2. The compound also gave a Ki on P2Y purinoceptor 1 [1] of 12.8 nM.

One may read the IC50 as the midpoint of a concentration-inhibition curve. `O=C(Nc1ccc(OC(F)(F)F)cc1)Nc1cccnc1-c1cc2ccccc2[nH]1`: the outcome at P2Y purinoceptor 1 [6] was inactive. The compound also returned a concentration for half-maximal inhibition (IC50) at P2Y purinoceptor 1 [1] of 227 nM.

As for `O=C(Nc1ccc(OC(F)(F)F)cc1)Nc1ccccc1N1CC2(CCCC2)c2ccccc21`, on P2Y purinoceptor 1 [1], the affinity corresponds to a Ki of 6.6 nM.

`CC1(C)CCN(c2ccccc2NC(=O)Nc2ccc(OC(F)(F)F)cc2)c2ccccc21`: the remaining at 10 min was determined as 63% in [7], 6% in [8] and 51% in series [9]. The same compound showed a logP in series [3] of more than 6.2. At P2Y purinoceptor 1 [1], affinity was put at a Ki of 7.3 nM.

In turn, `CC(C)N1CCC2(CC1)CN(c1ccccc1NC(=O)Nc1ccc(OC(F)(F)F)cc1)c1ccccc12` returned a solubility in series [2] of 71 µg/mL (≈ 135 µM). Moreover, the logP in series [3] was 4.5.

Take `CC1(C)CN(c2ncccc2NC(=O)Nc2ccc(OC(F)(F)F)cc2)c2ccccc21`: at P2Y purinoceptor 1 [1], the Ki was determined as 20.3 nM.

For `CC(C)(C)CN1CCC2(CC1)CN(c1ccccc1NC(=O)Nc1ccc(OC(F)(F)F)cc1)c1cccnc12`, in [5], the concentration in solution (solubility) was 5 µg/mL (≈ 9.03 µM). The compound further gave a logP in series [3] of more than 6.2. Further, on P2Y purinoceptor 1 [1], the affinity corresponds to a Ki of 28.7 nM.

On to `COCCN1CCC2(CC1)CN(c1ccccc1NC(=O)Nc1ccc(OC(F)(F)F)cc1)c1ccccc12`, for which the solubility in [5] was 66 µg/mL (≈ 122 µM). Moreover, the logP in series [3] came out at 5.1. This compound returned a Ki on P2Y purinoceptor 1 [1] of 390 nM.

With `O=C(Nc1ccc(OC(F)(F)F)cc1)Nc1ccccc1N1CC2(CCN(Cc3ccccc3)CC2)c2ccccc21`, the solubility in series [2] is less than 1 µg/mL. The compound also came in with a logP in [3] of more than 6.3. The compound further displayed a Ki at P2Y purinoceptor 1 [1] of 18.6 nM.

Regarding `O=C(Nc1ccc(OC(F)(F)F)cc1)Nc1ccccc1N1CC2(CCCCC2)c2ccccc21`, the solubility in series [5] is less than 1 µg/mL. The IC50 at P2Y purinoceptor 1 [10] came to 2.2 nM. For the same compound, the Ki on P2Y purinoceptor 1 [1] worked out at 5.9 nM.

For `O=C(Nc1ccc(OC(F)(F)F)cc1)Nc1ccccc1N1CC2(CCN(C(=O)OCc3ccccc3)CC2)c2ccccc21`, the IC50 on P2Y purinoceptor 1 [10] turned out to be 5.9 nM. This compound also had a Ki on P2Y purinoceptor 1 [1] of 36.6 nM.

In series [5], `CC(C)(C)CN1CCC2(C1)CN(c1ccccc1NC(=O)Nc1ccc(OC(F)(F)F)cc1)c1ccccc12` (stereo unspecified) came in with a solubility of 1 µg/mL (≈ 1.86 µM). The log partition coefficient (logP) in series [3] is more than 6.2. The compound also gave a Ki at P2Y purinoceptor 1 [1] of 5.8 nM.

In turn, `CC1CCN(c2ccccc2NC(=O)Nc2ccc(OC(F)(F)F)cc2)c2ccccc21` (stereo unspecified) came in with a Ki on P2Y purinoceptor 1 [1] of 29.5 nM.

With `CC(C)(C)CN1CCC2(CC1)CN(c1ccccc1NC(=O)Nc1ccc(OC(F)(F)F)cc1)c1cnccc12`, in series [5], the solubility amounted to 25 µg/mL (≈ 45.2 µM). Further, the remaining at 10 min in [8] is 73%; in series [9], 67%. The same compound registered a lipophilicity (logP) in series [3] of more than 6. For the same compound, the half-maximal inhibitory concentration (IC50) on P2Y purinoceptor 1 [10] is 10.7 nM. On P2Y purinoceptor 1 [1], this compound returned a Ki of 11.5 nM.

`O=C(O)CN1CCC2(CC1)CN(c1ccccc1NC(=O)Nc1ccc(OC(F)(F)F)cc1)c1ccccc12` registered a solubility in series [5] of 5 µg/mL (≈ 9.25 µM). For the same compound, the logP in series [3] was determined as 4.4. For the same compound, the Ki at P2Y purinoceptor 1 [1] was 13500 nM.

As to `O=C(Nc1ccc(OC(F)(F)F)cc1)Nc1ccccc1N1CCOc2ccccc21`, the logP in series [3] is listed as 5.7. At P2Y purinoceptor 1 [1], this compound gave an inhibition constant Ki of 65 nM.

With `CN1CCN(c2ccccc2NC(=O)Nc2ccc(OC(F)(F)F)cc2)c2ccccc21`, the logP in series [3] is reported as 5.5. Moreover, the affinity on P2Y purinoceptor 1 [1], expressed as Ki, was 94 nM.

Take `O=C(Nc1ccc(OC(F)(F)F)cc1)Nc1ccccc1N1CC2(CCC2)c2ccccc21`: at P2Y purinoceptor 1 [10], the IC50 amounted to 10.5 nM. At P2Y purinoceptor 1 [1], this compound showed a Ki of 7.6 nM.

`O=C(Nc1ccc(OC(F)(F)F)cc1)Nc1ccccc1N1CCCCc2ccccc21` gave a Ki at P2Y purinoceptor 1 [1] of 830 nM.

Take `CC(C)(C)CN1CCC2(CC1)CN(c1ccccc1NC(=O)Nc1ccc(OC(F)(F)F)cc1)c1ccncc12`: the solubility in series [5] is 428 µg/mL (≈ 773 µM). Moreover, in series [3], the logP stood at 5.1. Also, at P2Y purinoceptor 1 [10], the IC50 was found to be 346 nM. The compound further showed an inhibitory constant (Ki) on P2Y purinoceptor 1 [1] of 617 nM.

Take `O=C(Nc1ccc(OC(F)(F)F)cc1)Nc1ccccc1-c1cc2ccccc2[nH]1`: at P2Y purinoceptor 1 [6], the result was inactive. Further, the IC50 at P2Y purinoceptor 1 [1] was 75 nM.

For the compound `O=C(Nc1ccc(OC(F)(F)F)cc1)Nc1ccccc1N1CCCc2ccccc21`, at P2Y purinoceptor 1 [1], the affinity, expressed as Ki, was 36.5 nM.

`O=C(Nc1ccc(OC(F)(F)F)cc1)Nc1ccccc1N1CC2(CCNCC2)c2ccccc21` registered a solubility in [2] of 84 µg/mL (≈ 174 µM). In addition, in series [3], the logP is recorded as 4.3. Also, on P2Y purinoceptor 1 [1], the Ki came to 4500 nM.

In series [5], `CN1CCC2(CC1)CN(c1ccccc1NC(=O)Nc1ccc(OC(F)(F)F)cc1)c1ccccc12` gave a solubility of 100 µg/mL (≈ 201 µM). This compound also displayed a logP in [3] of 4.6. The compound also registered a Ki at P2Y purinoceptor 1 [1] of 690 nM.

Take `O=C(Nc1ccc(OC(F)(F)F)cc1)Nc1ccccc1N1CC2(CC2)c2ccccc21`: the Ki on P2Y purinoceptor 1 [1] is 26 nM.

`CC(C)CN1CCC2(CC1)CN(c1ccccc1NC(=O)Nc1ccc(OC(F)(F)F)cc1)c1ccccc12`: in series [2], the concentration in solution (solubility) came to 7 µg/mL (≈ 13 µM). Further, the results for the remaining at 10 min in series [8] and in series [9] were 84% and 79%, respectively. For the same compound, the logP in series [3] came to 5.5. On P2Y purinoceptor 1 [1], this compound had a Ki of 20.7 nM.

Turning to `CC(C)(C)CN1CCC2(CC1)CN(c1ccccc1NC(=O)Nc1ccc(OC(F)(F)F)cc1)c1ncccc12`, the IC50 on P2Y purinoceptor 1 [10] stood at 503 nM. Moreover, the Ki at P2Y purinoceptor 1 [1] is 253 nM.

Regarding `CC(C)(C)CN1CCC2(CC1)CCN(c1ccccc1NC(=O)Nc1ccc(OC(F)(F)F)cc1)c1ccccc12`, the solubility in series [5] was 16 µg/mL (≈ 28.2 µM). Further, the remaining at 10 min amounted to 87% in [8] and 90% in [9]. Also, the logP in series [3] is more than 6.2. Besides, the IC50 on P2Y purinoceptor 1 [10] stood at 9.9 nM. Besides, the inhibition constant (Ki) at P2Y purinoceptor 1 [1] is 4.6 nM.
